Measurements as given in patent US7776882B2, “2-amino-3,4-dihydro-quinoline derivatives useful as inhibitors of β-secretase (BACE)” (priority 2006, dated 2010).

Tests used:
human BACE-1 = target: T1, human BACE-1 (Homo sapiens, UniProt P56817); assay: In Vitro BACE Assay run by CEREP (Example 14); assay type: biochemical; settings: recombinant enzyme, 60 min at 37° C., pH 4.5; for % Inhibition 1 μM / inhibition at 1 µM: 1 μM compound; for inhibition at 0.3 µM / % Inhibition 0.3 μM: 0.3 μM compound
T1 construct: purchased CEREP (contract assay) 761-B
T1 sequence (P56817 46-501): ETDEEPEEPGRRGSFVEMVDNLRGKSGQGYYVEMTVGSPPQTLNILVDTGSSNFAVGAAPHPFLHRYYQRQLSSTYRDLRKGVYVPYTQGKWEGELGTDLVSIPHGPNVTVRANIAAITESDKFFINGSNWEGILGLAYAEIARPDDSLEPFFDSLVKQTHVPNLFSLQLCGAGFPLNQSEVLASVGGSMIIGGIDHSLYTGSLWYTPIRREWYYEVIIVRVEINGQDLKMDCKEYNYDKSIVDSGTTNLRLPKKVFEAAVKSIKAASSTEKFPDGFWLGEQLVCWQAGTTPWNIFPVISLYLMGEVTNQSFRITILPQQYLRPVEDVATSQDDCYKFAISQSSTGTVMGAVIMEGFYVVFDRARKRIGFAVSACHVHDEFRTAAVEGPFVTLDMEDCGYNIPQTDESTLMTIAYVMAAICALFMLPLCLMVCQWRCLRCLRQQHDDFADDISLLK
Experimental: This assay was run by CEREP (Catalog Ref. 761-B, Referred to SOP No. 1C131; ERMOLIEFF, J., LOY, J. A., KOELSCH, G. and TANG, J., Proteolytic activation of recombinant pro-memapsin 2 (pro-BACE) studied with new fluorogenic substrates, Biochemistry, (2000) Vol. 39, p. 12450).
More specifically the assay, run at 50 μL in a 96 well plate, evaluated the effect of test compound on the activity of the human BACE-1 quantified by measuring the formation of Mca-S-E-V-N-L-NH2 from Mca-S-E-V-N-L-D-A-E-F-R-K(Dnp)-R-R-NH2, using a recombinant enzyme.
The test compound, reference compound or water (control) was added to a buffer containing 0.09 M sodium acetate (pH 4.5) and 0.25 μg BACE-1. Compound interference with the fluorimetric detection method due to autofluorescence was then checked by measurements at the wavelengths defined to evaluate the enzyme activity. Thereafter, the reaction was initiated by adding 7.5 μM of the substrate Mca-S-E-V-N-L-D-A-E-F-R-K(Dnp)-R-R-NH2 and the mixture was incubated for 60 min at 37° C. For control basal measurement, the substrate was omitted from the reaction mixture. Immediately after the incubation, the fluorescence intensity emitted by the reaction product Mca-S-E-V-N-L-NH2 was measured at λex=320 nm and λem=405 nm using a microplate reader (Ultra, Tecan). The standard inhibitory reference compound was OM99-2, which was tested in each experiment at several concentrations to obtain an inhibition curve from which its IC50 value was calculated.

β-secretase (BACE) = target: T2, β-secretase (BACE) (Homo sapiens, UniProt P56817); assay: In Vitro BACE FS1 % Inhibition Assay (Example 10); assay type: biochemical; settings: FS1 substrate, values below about 25% (including negative) within noise; for % Inhibition (Example 10) @ 0.3 μM: 0.3 μM compound; for % Inhibition (Example 10) @ 1 μM: 1 μM compound; for % Inhibition (Example 10) @ 3 μM: 3 μM compound
T2 construct: purchased Panvera
T2 sequence (P56817 46-501): as above
Experimental: The following assay buffers were prepared and used in this assay: (1) enzyme assay buffer (0.05 M sodium acetate, pH5, 0.1% PEG8000 (w/v)), (2) substrate assay buffer (0.05 M sodium acetate, pH5), and (3) compound vehicle (30% DMSO in 50 mM HEPES, pH 7.4).
The FS1-substrate stock solution was prepared in DMSO as a 10 mg/mL solution. The FS1-substrate working solution was prepared by diluting the 10 mg/mL stock solution with substrate assay buffer to a final concentration of 300 μg/mL. The β-secretase (BACE) working solution was prepared by diluting a 0.83 mg/mL BACE stock solution with enzyme assay buffer to a final concentration of 4 μg/mL.
Test compounds were dissolved in DMSO to 10 mM. Compounds were further diluted in vehicle to various concentrations in the range of 405 μM to 4.05 μM (13.5×final compound concentration in screening plate).
The screening procedure for this assay was as follows: 15 μL of BACE working solution was pipetted into each well of a 96-well plate. To each well was then pipetted 2 μL of test compound at the selected concentration. Test compound and BACE were then mixed with a pipettor and incubated for 20 min at room temperature. To each well was then added 10 μL of the FS1 substrate working solution. The plates were then incubated for 1 hour at room temperature. The fluorescence for each well was then measured on an LJL analyst (Ex 360 nm/Em 530 nm).
The procedure for the blank (negative control) was as follows. 15 μL of assay buffer was pipetted into each well to be used as a blank control. To each well was then added 2 μL of vehicle and 10 μL of FS1-substrate working solution. The plates were then incubated for 1 hour at room temperature. The fluorescence was measured on an LJL analyst (Ex 360 nm/Em 530 nm).
The procedure for the positive control was as follows: 15 μL of BACE working solution was pipetted into each well to be used as a positive control. To each well was then pipetted 2 μL of vehicle. Vehicle and BACE were then mixed with a pipettor and incubated for 20 min at room temperature. To each well was then added 10 μL of the FS1 substrate working solution. The plates were then incubated for 1 hour at room temperature. The fluorescence (Fl) was then measured on an LJL analyst (Ex 360 nm/Em 530 nm).
For test compounds, % inhibition was determined at each concentration as follows: […]

Structure (SMILES)	% Inhibition (Example 10) @ 0.3 μM (β-secretase (BACE)) [%]	% Inhibition (Example 10) @ 1 μM (β-secretase (BACE)) [%]	% Inhibition (Example 10) @ 3 μM (β-secretase (BACE)) [%]	inhibition at 1 µM (human BACE-1) [%]	IC50 (human BACE-1) [nM]	also measured
Nc1nc2ccc(Oc3ccccc3)cc2cc1C(CCC(=O)NC1CN2CCC1CC2)C1CCOCC1 (mixture of isomers) [compound 52]						% Inhibition 1 μM (human BACE-1): 6%
Nc1nc2ccc(Oc3ccccc3)cc2cc1CCNC(=O)C1CCCCC1 [compound 4]	14	9	42			
COCCNC(=O)CCc1cc2cc(Oc3ccccc3)ccc2nc1N [compound 5]	22	41	37			
CCN(CC)CCNC(=O)CCc1cc2cc(Oc3ccccc3)ccc2nc1N [compound 10]	−11	−13	−0.3			
Nc1nc2ccc(Oc3ccccc3)cc2cc1CCC(=O)NCC1CCCCC1 [compound 11]		5	81			
CCCCNC(=O)CCc1cc2cc(Oc3ccccc3)ccc2nc1N [compound 12]	−2	0.8	19			
Nc1nc2ccc(Oc3ccccc3)cc2cc1CCC(=O)N[C@H](CO)CC1CCCCC1 [compound 14]	−14	−27	−15			
Nc1nc2ccc(Oc3ccccc3)cc2cc1CCCC(=O)NC12CC3CC(CC(C3)C1)C2 [compound 17]	19	20	46			
CN(C(=O)CCCc1cc2cc(Oc3ccccc3)ccc2nc1N)C1CCCCC1 [compound 18]	29	26	36			
COC(=O)[C@H]1CC[C@@H](NC(=O)CCC(c2cc3cc(Oc4ccccc4)ccc3nc2N)C2CCCCC2)CC1 (stereo partly drawn) [compound 19]	−15		24			
COC(=O)[C@H]1CC[C@H](NC(=O)CCC(c2cc3cc(Oc4ccccc4)ccc3nc2N)C2CCCCC2)CC1 (stereo partly drawn) [compound 20]	−8	−11	34			
Nc1nc2ccc(Oc3ccccc3)cc2cc1C(CCC(=O)N[C@H]1CC[C@@H](C(=O)O)CC1)C1CCCCC1 (stereo partly drawn) [compound 21]	0.5	−1	10			
Nc1nc2ccc(Oc3ccccc3)cc2cc1C(CCC(=O)N[C@H]1CC[C@H](C(=O)O)CC1)C1CCCCC1 (stereo partly drawn) [compound 22]	0.6	−19	−3			
Nc1nc2ccc(Oc3ccccc3)cc2cc1C(CCC(=O)N(Cc1ncc[nH]1)C1CCCCC1)C1CCOCC1 (stereo not drawn) [compound 30]				91	410	
Nc1nc2ccc(Oc3ccccc3)cc2cc1C(CCC(=O)NCc1nnnn1Cc1ccccc1)C1CCOCC1 (stereo not drawn) [compound 31]				59	740	inhibition at 0.3 µM (human BACE-1): 32%
Nc1nc2ccc(Oc3ccccc3)cc2cc1C(CCC(=O)NCC1CC1)C1CCOCC1 (stereo not drawn) [compound 36]				59	610	inhibition at 0.3 µM (human BACE-1): 49%
Nc1nc2ccc(Oc3ccccc3)cc2cc1C(CCC(=O)N(CCN1CCCC1)C1CCCCC1)C1CCCCC1 (stereo not drawn) [compound 37]				81	580	inhibition at 0.3 µM (human BACE-1): 27%
CN(Cc1ccccc1)C(=O)CCC(c1cc2cc(Oc3ccccc3)ccc2nc1N)C1CCCCC1 (stereo not drawn) [compound 38]						% Inhibition 0.3 μM (human BACE-1): 8%; % Inhibition 1 μM (human BACE-1): 9%
Cn1ccnc1CN(C(=O)CCC(c1cc2cc(Oc3ccccc3)ccc2nc1N)C1CCCCC1)C1CCCCC1 (stereo not drawn) [compound 39]					490	inhibition at 0.3 µM (human BACE-1): 16%
CN(CC1CCCCC1)C(=O)CCC(c1cc2cc(Oc3ccccc3)ccc2nc1N)C1CCCCC1 (stereo not drawn) [compound 40]					650	% Inhibition 0.3 μM (human BACE-1): 13%; % Inhibition 1 μM (human BACE-1): 54%
Nc1nc2ccc(Oc3ccccc3)cc2cc1C(CCC(=O)N(c1ncc[nH]1)C1CCCCC1)C1CCCCC1 (stereo not drawn) [compound 41]				79	470	inhibition at 0.3 µM (human BACE-1): 11%
Nc1nc2ccc(Oc3ccccc3)cc2cc1C(CCC(=O)N(CCO)C1CCCCC1)C1CCCCC1 (stereo not drawn) [compound 42]				58	810	
Nc1nc2ccc(Oc3ccccc3)cc2cc1C(CCC(=O)NC1CN2CCC1CC2)C1CCOCC1 (stereo not drawn) [compound 51]				56	1200	
Cn1ccnc1CN(CCC(C)(C)C)C(=O)CCC(c1cc2cc(Oc3ccccc3)ccc2nc1N)C1CCOCC1 (stereo not drawn) [compound 56]						% Inhibition 1 μM (human BACE-1): 94%
CC(C)(C)CCN(Cc1ncc[nH]1)C(=O)CCC(c1cc2cc(Oc3ccccc3)ccc2nc1N)C1CCOCC1 (stereo not drawn) [compound 57]						% Inhibition 1 μM (human BACE-1): 93%
CC(C)(C)CN(Cc1ncc[nH]1)C(=O)CCC(c1cc2cc(Oc3ccccc3)ccc2nc1N)C1CCOCC1 (stereo not drawn) [compound 58]						% Inhibition 1 μM (human BACE-1): 88%
CC(C)(C)CN(Cc1c[nH]cn1)C(=O)CCC(c1cc2cc(Oc3ccccc3)ccc2nc1N)C1CCOCC1 (stereo not drawn) [compound 59]						% Inhibition 1 μM (human BACE-1): 78%

Further lines, with some results ahead:

% Inhibition (Example 10) @ 0.3 μM (β-secretase (BACE)) [%]	% Inhibition (Example 10) @ 1 μM (β-secretase (BACE)) [%]	% Inhibition (Example 10) @ 3 μM (β-secretase (BACE)) [%]	inhibition at 1 µM (human BACE-1) [%]	IC50 (human BACE-1) [nM]	Structure (SMILES)	also measured
			88	650	Cn1ccnc1CN(CC(C)(C)C)C(=O)CCC(c1cc2cc(Oc3ccccc3)ccc2nc1N)C1CCCCC1 (stereo not drawn) [compound 43]	
			46	1100	CC(C)(C)OC[C@@H](NC(=O)CC[C@H](c1cc2cc(Oc3ccccc3)ccc2nc1N)C1CCCCC1)C(=O)N1CCOCC1 [compound 45]	
				740	Nc1nc2ccc(Oc3ccccc3)cc2cc1C(CCC(=O)N(CCO)C1CCCCC1)C1CCOCC1 (stereo not drawn) [compound 50]	% Inhibition 1 μM (human BACE-1): 87%
			90	460	Nc1nc2ccc(Oc3ccccc3)cc2cc1C(CCC(=O)N(Cc1c[nH]cn1)C1CCCCC1)C1CCOCC1 (stereo not drawn) [compound 53]	
			85	450	Cn1ccnc1CN(C(=O)CCC(c1cc2cc(Oc3ccccc3)ccc2nc1N)C1CCOCC1)C1CCCCC1 (stereo not drawn) [compound 54]	
			83	420	Cn1ccnc1CN(CC(C)(C)C)C(=O)CCC(c1cc2cc(Oc3ccccc3)ccc2nc1N)C1CCOCC1 (stereo not drawn) [compound 55]	
24	−8	17			Cc1ccccc1N1CCN(C(=O)CCc2cc3cc(Oc4ccccc4)ccc3nc2N)CC1 [compound 75]	
28		16			Nc1nc2ccc(Oc3ccccc3)cc2cc1CCC(=O)N1CCN(c2cccc(F)c2)CC1 [compound 76]	
28	19	36			C=CCC(c1cc2cc(Oc3ccccc3)ccc2nc1N)C1CCCCC1 (stereo not drawn) [compound 503]	
21	21	18			COC(=O)CCCc1cc2cc(Oc3ccccc3)ccc2nc1N [compound 504]	
